Source: US20250032629A1, “NOVEL NUCLEOLIN-BINDING PEPTIDE AND USE THEREOF” (ANYGEN CO., LTD., priority 2020, published 2025)
Ends that are not written are not given here.

How the values were obtained:
[1] = system: MCF-7, MDA-MB-231, HT-29, and HCT-116; experiment: FACS binding of AGM-330-FITC to cancer cells; assay type: cell-based, human; conditions: 2 h, 37° C., serum-free medium
MCF-10A and CCD-18Co [2] = experiment: FACS binding of AGM-330-FITC to normal cells; assay type: cell-based, human; conditions: 2 h of incubation, versus cancer cells
NCL = NCL (Homo sapiens, UniProt P19338); experiment: Double-immunofluorescence confocal microscopy with anti-NCL antibody; assay type: cell-based; parameters: GFP-NCL (residues 1-710); expressed in transfected cells; host or cells: HEK293T; conditions: 5 μmol/l, 1 h of incubation
Procedure: FIGS. 11A and 11B show the results of fluorescence confocal microscopy of multiple cancer and normal cells. […] Merge represents AGM-330-FITC, NCL, and nuclear staining by DAPI. AGM-330-FITC represents FITC-conjugated AGM-330. Scale bar is 20 μm. […] Here, plasma membrane, cytosol and nuclear NCL were immunoblotted using anti-NCL antibody. […] Here, MDA-MB-231 cells were transfected for 48 hours. Then, 5 μmol/l of AGM-330-FITC was added for 2 hours. Cells were washed twice with PBS and fixed with 4% paraformaldehyde. Fluorescence was observed using a fluorescent confocal microscope. AGM-330-FITC is FITC-conjugated AGM-330, and the scale bar is 20 μm. […] FIGS. 11G and 11H show in vivo fluorescence images of mice 30 min, 1 h, 6 h, and 24 h after intravenous injections of 10 nmol free Alexa680 (FIG. 11G) or 10 nmol AGM-330-Alexa680 (FIG. 11H) in MDA-MB-231-luc tumor-bearing mice. Here, fluorescence images of the major organs including the heart, spleen, lung, brain, liver, kidney, and tumors were removed from mice with different treatments. […] FIGS. 11I and 11J are graphs showing the average radiant efficiency of Alexa680-associated fluorescence from live imaging of three animals in tumors (FIG. 11I) and different organs (FIG. 11J).
The present inventors evaluated the specificity of AGM-330 to NCL with cell binding assays against different cell lines using fluorescence microscopy. […]

MCF-10A = experiment: Whole-cell binding (cell-growth-on-bead) assay of screened peptide beads; assay type: cell-based, human
Procedure: (§1) Here, multiple breast and colorectal cancer cells and normal breast and colorectal cells were re-suspended at 10^6 cells/ml and incubated with beads. All experiments were repeated 3 times, and the scale bar is 200 μm. […] Here, nuclei were stained with DAPI (blue), and scale bar is 50 μm. […] Here, a whole-cell binding assay was performed to determine the cell binding of AGM-330, and the scale bar is 200 μm. […] Fmoc=9-fluorenylmethoxycarbonyl, DMF=dimethylformamide. […] Here, bar graphs represent the mean±SD, and statistical analyses were performed by one-way ANOVA with Dunnett's multiple comparison. *, **, and *** indicate P<0.05, P<0.01, and P<0.001, respectively.
(§2) The beads were washed extensively with double-distilled water and phosphate-buffered saline (PBS; Welgene Inc., Korea) before screening. Cancer cells and normal cells were detached from culture dishes with trypsin/EDTA (Gibco), washed with their corresponding culture medium, resuspended at 10^6 cells/ml, and incubated with OBOC beads in Petri dishes in a humidified CO2 incubator at 37° C. with shaking (60 rpm). Beads bound by cells appeared under a microscope as rosettes with a central bead covered by one or more layers of cells. The positive beads were picked by pipette under an inverted microscope, treated with guanidine-HCL (8 M, 20 min) to remove cells and proteins on the bead surface, and subjected to a second round of screening with normal breast epithelial cells to eliminate false positive binding. Only beads with cell binding at both rounds were sent for peptide sequencing.
(§3) To identify a novel cancer-specific peptide ligand, the present inventors synthesized about 2, 600,000 libraries using 5 g of Tentagel MB NH2 resin (200 μm, 520,000 beads/g; FIG. 3).

MDA-MB-231 = experiment: as above; assay type: cell-based, human
Procedure: as §1, §2, §3

MDA-MB-231 cells [3] = experiment: Confocal imaging of FITC-labeled peptides; assay type: cell-based, human; conditions: compared with AGM-331 and AGM-332
[4] = system: human breast cancer cell lines (MCF7 and MDA-MB-231) and human colorectal cancer cell lines (HT-29 and HCT-116); experiment: Cell-growth-on-bead assay with resynthesized AGM-330 beads; assay type: cell-based; conditions: MCF7, MDA-MB-231, HT-29, HCT-116
Procedure: as §1
The beads were washed extensively with double-distilled water and phosphate-buffered saline (PBS; Welgene Inc., Korea) before screening. Cancer cells and normal cells were detached from culture dishes with trypsin/EDTA (Gibco), washed with their corresponding culture medium, resuspended at 10^6 cells/ml, and incubated with OBOC beads in Petri dishes in a humidified CO2 incubator at 37° C. with shaking (60 rpm). Beads bound by cells appeared under a microscope as rosettes with a central bead covered by one or more layers of cells. […]

MCF-10A and CCD-18Co [5] = experiment: Cell-growth-on-bead assay, normal cell lines; assay type: cell-based, human
Procedure: as §1, §2, §3

MDA-MB-231 cells [6] = experiment: AGM-330 binding to cells after NCL knockdown (fluorescence confocal microscopy); assay type: cell-based, human
Procedure: (§4) FIGS. 11A and 11B show the results of fluorescence confocal microscopy of multiple cancer and normal cells. Here, MCF-10A, MCF-7, MDA-MB-231 (FIG. 11A) or CCD-18Co, HT-29, and HCT-116 (FIG. 11B) cells were incubated with 5 μmol/l AGM-330-FITC for 30 min at 37° C. […] Cells were then fixed with 4% paraformaldehyde, and the nuclei were stained with DAPI. Merge represents AGM-330-FITC, NCL, and nuclear staining by DAPI. AGM-330-FITC represents FITC-conjugated AGM-330. Scale bar is 20 μm. […] Here, plasma membrane, cytosol and nuclear NCL were immunoblotted using anti-NCL antibody. […] Here, MDA-MB-231 cells were transfected for 48 hours. Then, 5 μmol/l of AGM-330-FITC was added for 2 hours. […] Fluorescence was observed using a fluorescent confocal microscope. […] FIGS. 11G and 11H show in vivo fluorescence images of mice 30 min, 1 h, 6 h, and 24 h after intravenous injections of 10 nmol free Alexa680 (FIG. 11G) or 10 nmol AGM-330-Alexa680 (FIG. 11H) in MDA-MB-231-luc tumor-bearing mice. Here, fluorescence images of the major organs including the heart, spleen, lung, brain, liver, kidney, and tumors were removed from mice with different treatments. […] FIGS. 11I and 11J are graphs showing the average radiant efficiency of Alexa680-associated fluorescence from live imaging of three animals in tumors (FIG. 11I) and different organs (FIG. 11J). […]

MDA-MB-231-luc tumor = experiment: In vivo near-infrared fluorescence imaging in xenograft model of human breast cancer; parameters: species or system mice; conditions: mouse
Procedure: as §4

MDA-MB-231-luc cells = experiment: Tumor suppression in breast cancer xenograft model; assay type: in vivo, NPG mice; conditions: 16.68 mg/kg
Procedure: FIG. 14B is a schematic representation of the experimental protocol. Here, anesthetized 6-week-old […] NPG mice were inoculated with a 1:1 mix of Matrigel and 1×10^6 MDA-MB-231-luc cells into the mammary fat pad. […] Nuclei were stained with DAPI (blue), and the scale bar is 50 μm. Bar graphs represent the mean±SD, and statistical analyses were performed by one-way ANOVA with Dunnett's multiple comparison. *, **, and *** indicate P<0.05, P<0.01, and P<0.001, respectively. […]
All animal experiments were performed in accordance with IACUC guidelines (GIST-2019-040). For tumorigenesis experiments, anesthetized 6-week-old female NOD-scid Il2rg^−/− mice (NPG™, VITALSTAR) were inoculated in the mammary fat pad with 1×10^6 MDA-MB-231-luc cells in a volume of 100 μl (n=5˜6 for each group). After tumor cell inoculation, when the tumor volume reached approximately 100 mm^3, the mice were randomly divided into the following five groups: (i) control, (ii) low-dose paclitaxel (2 mg/kg), (iii) high-dose paclitaxel (10 mg/kg), (iv) AGM-330 (16.68 mg/kg or 8.34 mg/kg), and (v) AGM-330-PTX (19.05 mg/kg or 10.71 mg/kg). The tumor size was measured twice a week, and the tumor volume was calculated with the following formula:
For the bioluminescent imaging experiment, D-luciferin (150 mg/kg; PerkinElmer) was intraperitoneally injected into each mouse, and an IVIS 100 imaging system (Xenogen, Corporation, Alameda, CA) was used for bioluminescent monitoring. Mice were anesthetized with vaporized isoflurane (BK Pharm, Ilsan, Korea) and placed in an imaging chamber. After 10 min, each animal was imaged with an exposure time of 1 min. All bioluminescent image data were provided by Living Image software (version 4.5.2, PerkinElmer). Photons detected from tumors were converted to average radiance values (photon/see/cm^2/sr), which are quantitative data obtained from a region of intensity (ROI) and include the photons emitted by bioluminescent cells from an assigned rectangular area over the whole body of each mouse.
Following in vitro proliferation analysis on cancer lines, the present inventors investigated whether AGM-330t-PTX could be a potential therapeutic agent in vivo. The present inventors inoculated MDA-MB-231-luc cells into the mammary fat pad of NPG mice. After the subcutaneous tumors grew to 100 mm^3, comparative efficacy studies were performed by dividing the animals into five groups (n=5/group) treated with vehicle (PBS), AGM-330t (16.68 mg/kg), PTX (2 or 10 mg/kg, respectively) or AGM-330t-PTX (19.05 mg/kg) twice a week by tail vein injection (FIG. 14B). Tumor growth was monitored by measuring volumes twice a week with a caliber rule over the course of 3 weeks.
The present inventors also performed histological staining of the excised tumors, and an independent pathologist evaluated the slides.

[7] = target: T1, recombinant nucleolin protein (UniProt P19338 1-710, limits assumed); experiment: SPR (Biacore T-200), recombinant NCL immobilised on a CM5 chip, AGM-330 at 20 nM to 2.5 uM
T1 construct: also called recombinant NCL; NCL
Procedure: (§5) The SPR sensorgrams shown are from an experiment that is representative of a set of three separate experiments using different sensor chips with similar results. Recombinant NCL was immobilized onto a CM5 sensor chip. Various concentrations of AGM-330 (20 nM to 2.5 µM) were incubated with immobilized NCL and analyzed on a Biacore T-200 apparatus.
(§6) Binding affinity was tested by SPR (surface plasmon resonance) spectroscopy (Biacore T-200). The recombinant nucleolin protein was immobilized on the CM5 sensorchip, and the treated with AGM-330 at various concentrations (20 nM to 2.5 µM). The sensogram for each sample was analyzed to determine the KD value.

[8] = target: T1, recombinant nucleolin protein; experiment: SPR (Biacore T-200), recombinant NCL immobilised on a CM5 chip, AGM-330 20 nM to 2.5 µM as analyte
Procedure: as §5, §6

T1 sequence (P19338 whole entry): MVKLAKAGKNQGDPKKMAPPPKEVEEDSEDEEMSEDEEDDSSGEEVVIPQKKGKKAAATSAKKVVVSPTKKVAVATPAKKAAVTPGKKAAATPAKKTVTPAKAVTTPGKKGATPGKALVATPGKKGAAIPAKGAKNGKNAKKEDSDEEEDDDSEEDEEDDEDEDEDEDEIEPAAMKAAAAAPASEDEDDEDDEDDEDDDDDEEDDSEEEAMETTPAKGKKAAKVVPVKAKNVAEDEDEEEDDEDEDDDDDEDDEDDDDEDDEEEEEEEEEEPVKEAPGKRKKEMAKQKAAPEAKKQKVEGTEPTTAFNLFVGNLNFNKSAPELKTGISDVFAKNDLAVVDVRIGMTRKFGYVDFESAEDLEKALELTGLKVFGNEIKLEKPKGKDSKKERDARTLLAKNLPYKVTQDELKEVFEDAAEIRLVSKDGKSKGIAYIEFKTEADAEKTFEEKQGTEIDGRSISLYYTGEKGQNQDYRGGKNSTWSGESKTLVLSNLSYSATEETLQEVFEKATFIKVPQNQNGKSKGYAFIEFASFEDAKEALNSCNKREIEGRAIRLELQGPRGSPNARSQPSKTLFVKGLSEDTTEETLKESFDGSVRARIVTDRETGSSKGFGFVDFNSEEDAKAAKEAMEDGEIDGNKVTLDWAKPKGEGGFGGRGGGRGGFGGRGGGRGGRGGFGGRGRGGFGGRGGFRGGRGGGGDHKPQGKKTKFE
NCL, sequence (P19338 whole entry, the tested form may be a part): as the sequence (P19338 whole entry) above

Molecule: AGM-330-FITC (RHGAMVYLK; also: FITC-labelled (site not given here))
- cancer cell binding (increase in MFI relative to untreated cells) [1]: significant cancer cell binding
- binding to normal cells (MFI) (MCF-10A and CCD-18Co [2]): significant decrease in binding
- colocalization with NCL staining (NCL): overlap between NCL and AGM-330-FITC

Molecule: RHGAMVYLK [AGM-330, name also used for its PEGylated MAP dendrimeric forms]
- binding to the human normal breast cell line MCF-10A (MCF-10A): no or only weak binding
- binding to MDA-MB-231 (MDA-MB-231): strong preferential binding
- fluorescence signals of FITC-labeled peptide on MDA-MB-231 cells (MDA-MB-231 cells [3]): strongest fluorescence signals
- time until beads were fully covered by cancer cell lines [4]: ≤ 15 min
- binding to normal cell lines MCF-10A and CCD-18Co (MCF-10A and CCD-18Co [5]): bound either very weakly or not at all
- fluorescence signal (AGM-330 binding) in siNCL1-treated cells (MDA-MB-231 cells [6]): little or no fluorescence signal
- distribution in tumor tissue versus normal organs (NIRF images) (MDA-MB-231-luc tumor): mainly accumulated throughout the tumor tissue rather than normal organs
- difference in the average tumor volume versus vehicle (PBS)-treated mice (MDA-MB-231-luc cells): no significant difference

B1: AGM-330 (peptide)
peptide: RHGAMVYLK
modifications: not fully specified (C-terminus); also: MAP dendrimer (dimer/tetramer) on lysine core with C-terminal Cys
notes: The form used in SPR (monomer, dimer or tetramer); also called AGM-330 peptide; AGM peptide ligand
- Kd [7]: ~57.7 nM
- Kd [8]: 57.7 nM
